Test [1] has as its system H1581 (FGFR1 amp). Briefly: In vitro growth inhibition of H1581 tumor cells (MTT/CCK8). The test is classed as cell-based, Human. Conditions: Homo sapiens, NCI-H1581; in vitro growth inhibition (or induction of apoptosis), cells cultured 3 to 5 days, MTT (CCK8); read-out: IC50 H1581 (FGFR1 amp).
Test [2] deals with Cal-120. In words: In vitro growth inhibition of Cal-120 cells. The test is classed as cell-based. The note with it: Homo sapiens, FGFR1 amp. Here is the method: (§1) Adherent cells were digested with 0.25% trypsin-EDTA (Gibco). Suspension culture cells were collected by centrifugation (1700 rpm, 3 minutes). The supernatant was discarded and the cells were counted. According to each cell growth cycle, different concentrations of cells were prepared (5˜10×10^4 cells per ml), and inoculated to 96-well plates (Corning), with 100 μl per well, and incubated overnight at 37° C., 5% CO2. The next day, the test compound was added to the cultured cells (2 wells in parallel). The final concentration of the solvent was less than 1/1,000. The cells were further cultured for 3 to 5 days and assayed by MTT.
(§2) The MTT test reagent was a Dojindo CCK8 kit and the Microplate Reader was a THERMO […] FC instrument.
(§3) The adherent cells were taken out from the cell culture medium, and immediately added to a freshly prepared complete medium containing 10% CCK8 (5% FBS), 100 ul per hole. The suspended cells were directly added to a CCK8 reagent until reaching a final concentration of 10% and cultured for 1 to 4 hours. When a dark yellow color could be observed in the solvent control wells, the absorbance value at OD450 nm was measured and the cell growth rate was calculated according to the following formula: Cell Growth Rate (%)=100×(T−T0)/(C−T0)
(§4) T=optical density of drug-treated cell wells−optical density of blank control wells; T0=optical density of cell wells before drug treatment−optical density of blank control wells; C=optical density of solvent control wells−optical density of blank control wells. […] The experiments were repeated 1 to 3 times and a statistical analysis of data was conducted.
(§5) Mutations in the FGFR1-4 gene often occur in different types of cancer patients. In order to test the growth inhibition activity of the present compound against tumor cells expressing different FGFR variants, tumor cell lines expressing representative FGFR1-4 were selected for further determining the activity of compounds 25, 66, 38 and 95 of the present invention. BGJ398, a selective inhibitor of FGFR1-4, was used as the control compound. The specific test method is the same as test example 1.

In test [3] the test system is AN3-CA. In words: In vitro growth inhibition of AN3-CA cells. The test is classed as cell-based. The note with it: Homo sapiens, FGFR2 mutant. On the procedure: as §1, §2, §3, §4, §5
The subject of test [4] is DMS114. In words: In vitro growth inhibition of DMS114 cells. The test is classed as cell-based. The note with it: Homo sapiens, DMS-114, FGFR1 amp. On the procedure: as §1, §2, §3, §4, §5
Test [5] concerns NCI-H460. Briefly: In vitro growth inhibition of PI3KCA amplified/mutant tumor cells NCI-H460. The note with it: Homo sapiens; NCI-H460; PI3KCA E545K; KRAS Q61H; read-out: IC50 growth inhibition. The test is classed as cell-based. Here is the method:
(§6) Suspension culture cells were collected by centrifugation (1700 rpm, 3 minutes). The supernatant was discarded and the cells were counted. According to each cell growth cycle, different concentrations of cells were prepared (5˜10×10^4 cells per ml), and inoculated to 96-well plates (Corning), with 100 μl per well, and incubated overnight at 37° C., 5% CO2. The next day, the test compound was added to the cultured cells (2 wells in parallel). The final concentration of the solvent was less than 1/1,000. The cells were further cultured for 3 to 5 days and assayed by MTT.
(§7) The adherent cells were taken out from the cell culture medium, and immediately added to a freshly prepared complete medium containing 10% CCK8 (5% FBS), 100 ul per hole. The suspended cells were directly added to a CCK8 reagent until reaching a final concentration of 10% and cultured for 1 to 4 hours.
as §4

Test [6] has as its system KATO III (FGFR2 amp). In words: In vitro growth inhibition of KATO III tumor cells (MTT/CCK8). The note with it: Homo sapiens, KATO III; in vitro growth inhibition (or induction of apoptosis), cells cultured 3 to 5 days, MTT (CCK8); read-out: IC50 KATO III (FGFR2 amp). The test is classed as cell-based, Human.
The test system of test [7] is A375. In words: In vitro growth inhibition of A375 cells. The note with it: Homo sapiens, A-375, BRAF V600E, FGFR2 mutant. The test is classed as cell-based. Here is the method: as §1, §2, §3, §4, §5
Test [8] has as its system MFM-223. In words: In vitro growth inhibition of MFM-223 cells. The test is classed as cell-based. Conditions: Homo sapiens, PI3KCA H1047R, FGFR1 amp, FGFR2 amp. Here is the method: as §1, §2, §3, §4, §5
For test [9], the system named is KYSE70. In words: In vitro growth inhibition of PI3KCA amplified/mutant tumor cells KYSE70. Conditions: Homo sapiens, KYSE-70; KYSE70; PI3KCA amp; KIT G779C; read-out: IC50 growth inhibition. The test is classed as cell-based. On the procedure: as §6, §7, §4
Test [10] concerns HCT116. Briefly: In vitro growth inhibition of PI3KCA amplified/mutant tumor cells HCT116. The test is classed as cell-based. The note with it: Homo sapiens; HCT-116; PI3KCAH1047R; KRAS G13D; read-out: IC50 growth inhibition. On the procedure: as §6, §7, §4
Test [11] concerns MOLM-13 (FLT3-ITD). Briefly: In vitro growth inhibition of MOLM-13 tumor cells (MTT/CCK8). The test is classed as cell-based, Human. Conditions: Homo sapiens, MOLM-13; in vitro growth inhibition (or induction of apoptosis), cells cultured 3 to 5 days, MTT (CCK8); read-out: IC50 MOLM-13 (FLT3-ITD).
In test [12] the test system is KCL-22 (BCR-ABL). Briefly: In vitro growth inhibition of KCL-22 tumor cells (MTT/CCK8). The note with it: Homo sapiens, KCL-22; in vitro growth inhibition (or induction of apoptosis), cells cultured 3 to 5 days, MTT (CCK8); read-out: IC50 KCL-22 (BCR-ABL). The test is classed as cell-based, Human.
Test [13] deals with SNU-16. In words: In vitro growth inhibition of SNU-16 cells. The test is classed as cell-based. Conditions: Homo sapiens, FGFR2 amp. Here is the method: as §1, §2, §3, §4, §5

pIC50: −log10 of the molar value.

In patent US10800741B2 (ANCUREALL PHARMACEUTICAL (SHANGHAI) CO., LTD., priority 2017, dated 2020) one finds IC50 data, which are given here for 3 compounds.

On to `COc1cc2nccc(Oc3ccc(NC(=O)Nc4cc(C(C)(C)C)nn4C)c(Cl)c3Cl)c2cc1C(N)=O` [Compound 38, 4-{4-[3-(5-tert-butyl-2-methyl-2H-pyrazol-3-yl)-ureido]-2,3-dichloro-phenoxy}-7-methoxyquinolin-6-carboxamide], for which the pIC50 is 9.54 in test [1]; 8.01 in test [2]; 8.44 in test [3]; 8.39 in test [4]; 7.59 in test [5]; 9.74 in test [6]. The pIC50 in [7] was 7.78; in test [8], 7.83; in [9], 8.01; in test [10], 7.92; in test [11] it was 9.07; in test [12] it was 9.32. The same compound had a pIC50 in [13] of 8.69.

On to `COCCOc1cc2nccc(Oc3ccc(NC(=O)Nc4cc(C(C)(C)C)n[nH]4)c(Cl)c3)c2cc1NC(C)=O` [Compound 66, N-[4-{4-[3-(5-tert-butyl-2H-pyrazol-3-yl)-ureido]-3-chloro-phenoxy}-7-(2-methoxy-ethoxy)-quinolin-6-yl]-acetamide], for which the pIC50 is 8.69 in test [1]; 8.01 in test [2]; 8.40 in test [3]; 8.41 in test [4]; 7.58 in test [5]; 10.10 in [6]. The pIC50 in test [7] was 7.50; in test [8], 7.75; in test [9], 7.53; in test [10], 7.57; in test [11], 9.06; in test [12], 8.51. Also, the pIC50 in [13] is 9.00.

For `CN1CCN(CCCOc2cc3nccc(Oc4ccc(NC(=O)Nc5cc(C(C)(C)C)n[nH]5)c(Cl)c4Cl)c3cc2C(N)=O)CC1` [Compound 95], the pIC50 was 8.10 in [1]; 8.01 in test [2]; 8.41 in test [3]; 8.53 in test [4]; 7.46 in test [5]; 9.04 in test [6]. The pIC50 in test [7] was 7.21; in [8] it was 7.49; in [9] it was 7.72; in test [10], 7.48; in test [11], 8.76; in [12] it was 8.15. Also, the pIC50 in test [13] is 8.48.

The pIC50 is −log10 of the IC50, conventionally taken in molar units.
